Experimental data reported in article PMC5663093, “Bioprospecting of novel thermostable β-glucosidase from Bacillus subtilis RA10 and its application in biomass hydrolysis” (Biotechnology for Biofuels, 2017).

Columns and labels:
[1] = biological target: T1, BglB (β-glucosidase from B. subtilis RA10) (Bacillus subtilis, UniProt P42403); test: β-glucosidase activity with added glucose ([…]); type: biochemical; conditions: inhibitor (product); weak inhibition
T1 construct: gene bglC; full-length GH1 gene (1437 bp, start MIHKKQG, end TNGKSL fixed by degenerate primers) in pET28a+ (BamHI/SalI), E. coli BL21(DE3); Asn169-Glu170, nucleophile Glu377
T1 sequence (P42403 whole entry): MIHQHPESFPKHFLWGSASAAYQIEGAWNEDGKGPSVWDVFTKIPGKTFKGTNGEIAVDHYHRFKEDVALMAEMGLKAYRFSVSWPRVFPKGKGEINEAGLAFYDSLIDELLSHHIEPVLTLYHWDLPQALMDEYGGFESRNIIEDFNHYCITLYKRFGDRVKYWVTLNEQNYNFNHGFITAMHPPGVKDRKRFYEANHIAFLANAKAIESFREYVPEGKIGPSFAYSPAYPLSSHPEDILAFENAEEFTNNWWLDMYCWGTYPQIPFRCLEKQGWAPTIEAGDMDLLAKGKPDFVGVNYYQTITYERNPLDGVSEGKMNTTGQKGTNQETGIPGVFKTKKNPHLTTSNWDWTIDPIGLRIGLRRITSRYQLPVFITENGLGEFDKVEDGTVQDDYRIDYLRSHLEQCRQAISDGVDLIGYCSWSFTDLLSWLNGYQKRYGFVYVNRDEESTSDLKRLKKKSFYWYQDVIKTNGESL

[2] = biological target: T1, BglB (β-glucosidase from B. subtilis RA10); test: Michaelis-Menten nonlinear regression, p-nitrophenol release; type: biochemical; conditions: 50 mM citrate pH 5.0; 0.5-5.0 mM substrate

Row | Compound | % activity retained at 1000 mM [1] [%] | Km [2] [mM]
1 | OC[C@H]1OC(O)[C@H](O)[C@@H](O)[C@@H]1O (stereo partly drawn) [D-glucose] | 70 | –
2 | O=[N+]([O-])c1ccc(O[C@@H]2O[C@H](CO)[C@@H](O)[C@H](O)[C@H]2O)cc1 [pNPG, p-nitrophenyl-β-D-glucopyranoside] | – | 3.9 ± 0.2
